Read-outs that look alike come from different tables or passages of the source.
Legend:
[1] = test system: p-388 leukemia cells; experiment: Test Example 1 (Intraperitoneal-intraperitoneal) antitumour activity, increase life span; type: in vivo, BDF1 mice; conditions: Mus musculus, P388, ip, 720 h
Description: To BDF1 mice, p-388 leukemia cells were intraperitoneally inoculated in an amount of 1×10^6 cells/mouse. A test drug was intraperitoneally administered twice, i.e. one day and four days after the inoculation. […] The increase life span ILS (%) of each treated group was obtained with the number of survival days of mice of the control group to which a physiological saline was administered, being evaluated as 0. The drugs were dispersions obtained by adding small amounts of surfactants (e.g. Tween-80) to the test compounds.
ILS (%)*: Increase Life Span, calculated in accordance with the following
formula: ILS (%) = MST100, where MST is the ratio of median survival time
of test and control animals.

[2] = test system: p-388 leukemia cells; experiment: Test Example 2 (intraperitoneal-oral) antitumour activity, increase life span; type: in vivo, BDF1 mice; conditions: oral drug, days 1 and 4
Description: A test drug was orally administered twice i.e. one day and four days after the inoculation.
The mixture was pulverized in a wet system by a sand mill using glass beads (80% of particles having a particle size of not larger than 2 μm). Then, 5 parts by weight of xanthane gum (2% solution) was added thereto to obtain an aqueous suspension.

[3] = Acute toxicity, LD50; conditions: mouse, in vivo, ip; ddY mice, intraperitoneal, Formulation Example 4
Description: To ddY mice (10 animals), a drug containing one of Compound Nos. 1-4, 7, 9 and 10 of the present invention formulated in accordance with Formulation Example 4 was intraperitoneally administered, and the LD50 value was measured and found to be at least 100 mg/kg in each case, and the LD50 value of Compound No. 6 of the invention found to be at least 50 mg/kg.
The Compound No. 2 of the present invention was preliminarily pulverized by a centrifugal pulverizer. On the other hand, 5 parts by weight of polyoxyethylene (60) hardened castor oil, 0.2 part by weight of silicone and 0.3 part by weight of a polyoxyethylene-polyoxypropylene block polymer were added to 79.5 parts by weight of a physiological saline to obtain an aqueous solution, to which 10 parts by weight of the above pulverized Compound No. 2 of the present invention was added. The mixture was pulverized in a wet system by a sand mill using glass beads (80% of particles having a particle size of not larger than 2 μm). Then, 5 parts by weight of xanthane gum (2% solution) was added thereto to obtain an aqueous suspension.

[4] = read-out: ILS (increase life span)
[5] = i.p. drug, days 1 and 4, 100 mg/kg/day, read-out: ILS (increase life span)

O=c1[nH]cc(F)c(=O)[nH]1 [5-Fluorouracil, reference compound]
ILS at 60 mg/kg/day [1, 4]: 85%

O=C(NC(=O)c1ccccc1Cl)Nc1ccc(Oc2ncc(Cl)cn2)c(Cl)c1 [Comparative Compound No. 1, N--(2chlorobenzoyl)-N'--[3chloro-4-(5-chloro-2-pyrimidinyloxy)phenyl]urea]
ILS (increase life span) ([2]; 800 mg/kg/day): 11% | ILS (increase life span) ([2]; 1600 mg/kg/day): 24% | ILS at 100 mg/kg/day [1, 5]: 33%

O=C(NC(=O)c1ccccc1Br)Nc1ccc(Oc2ncc(I)cn2)c(Cl)c1 [Comparative Compound No. 2, N--(2bromobenzoyl)-N'--[3chloro-4-(5-iodo-2-pyrimidinyloxy)phenyl]urea]
ILS (increase life span) ([2]; 400 mg/kg/day): 4% | ILS (increase life span) ([2]; 800 mg/kg/day): 2% | ILS at 100 mg/kg/day [1, 5]: 65%

O=C(NC(=O)c1ccccc1Cl)Nc1ccc(Oc2ccc(Cl)nn2)c(Cl)c1 [Comparative Compound No. 3, N--(2chlorobenzoyl)-N'--[3chloro-4-(6-chloro-3-pyridazinyloxy)phenyl]urea, reference compound]
ILS at 200 mg/kg/day ([1]; i.p. drug, days 1 and 4): 24%

O=C(NC(=O)c1ccccc1Cl)Nc1ccc(Oc2ccc(Br)nn2)c(Cl)c1 [Comparative Compound No. 4, N--(2chlorobenzoyl)-N'--[4(6-bromo-3-pyridazinyloxy)-3-chlorophenyl]urea, reference compound]
ILS at 100 mg/kg/day [1, 5]: 36%

O=C(NC(=O)c1ccccc1[N+](=O)[O-])Nc1ccc(Oc2ccc(C(F)(F)F)cn2)c(Cl)c1 [Comparative Compound No. 5, reference compound]
ILS at 100 mg/kg/day [1, 5]: 70%

O=C(NC(=O)c1ccccc1Cl)Nc1ccc(Oc2ccc(Br)cn2)c(Cl)c1 [Comparative Compound No. 6, N--(2chlorobenzoyl)-N'--[4(5-bromo-2-pyridyl-oxy)-3-chlorophenyl]urea, reference compound]
ILS at 200 mg/kg/day ([1]; i.p. drug, days 1 and 4): 50%

O=C(NC(=O)c1ccccc1[N+](=O)[O-])Nc1ccc(Oc2ncc(I)cn2)c([N+](=O)[O-])c1 [Compound No. 1, N-(2-nitrobenzoyl)-N'-[4-(5-iodo-2-pyrimidinyloxy)-3-nitrophenyl]urea]
ILS at 50 mg/kg/day [1, 4]: 111% | LD50 [3]: ≥ 100 mg/kg

O=C(NC(=O)c1ccccc1[N+](=O)[O-])Nc1ccc(Oc2ncc(Cl)cn2)c([N+](=O)[O-])c1 [Compound No. 2, N-(2-nitrobenzoyl)-N'-[4-(5-chloro-2-pyrimidinyloxy)-3-nitrophenyl]urea]
ILS (increase life span) ([2]; 200 mg/kg/day): 90% | ILS (increase life span) ([2]; 400 mg/kg/day): 108% | ILS at 50 mg/kg/day [1, 4]: 134% | LD50 [3]: ≥ 100 mg/kg

O=C(NC(=O)c1ccccc1[N+](=O)[O-])Nc1ccc(Oc2ncc(Br)cn2)c([N+](=O)[O-])c1 [Compound No. 3, N-(2-nitrobenzoyl)-N'-[4-(5-bromo-2-pyrimidinyloxy)-3-nitrophenyl]urea]
ILS (increase life span) ([2]; 200 mg/kg/day): 39% | ILS (increase life span) ([2]; 400 mg/kg/day): 46% | ILS at 50 mg/kg/day [1, 4]: 120% | LD50 [3]: ≥ 100 mg/kg

O=C(NC(=O)c1ccccc1Cl)Nc1ccc(Oc2ncc(Cl)cn2)c([N+](=O)[O-])c1 [Compound No. 4, N-(2-chlorobenzoyl)-N'-[4-(5-chloro-2-pyrimidinyloxy)-3-nitrophenyl]urea]
ILS at 100 mg/kg/day [1, 4]: 102% | LD50 [3]: ≥ 100 mg/kg

O=C(NC(=O)c1ccc(Cl)cc1[N+](=O)[O-])Nc1ccc(Oc2ncc(Cl)cn2)c([N+](=O)[O-])c1 [Compound No. 6, N-(4-chloro-2-nitrobenzoyl)-N'-[4-(5-chloro-2-pyrimidinyloxy)-3-nitrophenyl]urea]
ILS at 25 mg/kg/day [1, 4]: 165% | LD50 [3]: ≥ 50 mg/kg

O=C(NC(=O)c1ccccc1[N+](=O)[O-])Nc1ccc(Oc2ccc(Br)nn2)c([N+](=O)[O-])c1 [Compound No. 7, N-(2-nitrobenzoyl)-N'-[4-(6-bromo-3-pyridazinyloxy)-3-nitrophenyl]urea]
ILS at 100 mg/kg/day [1, 4]: 152% | LD50 [3]: ≥ 100 mg/kg

O=C(NC(=O)c1ccccc1[N+](=O)[O-])Nc1ccc(Oc2ccc(C(F)(F)F)cn2)c([N+](=O)[O-])c1 [Compound No. 9, N-(2-nitrobenzoyl)-N'-[4-(5-trifluoromethyl-2-pyridyloxy)-3-nitrophenyl]urea]
ILS at 100 mg/kg/day [1, 4]: 119% | LD50 [3]: ≥ 100 mg/kg

O=C(NC(=O)c1ccccc1[N+](=O)[O-])Nc1ccc(Oc2ccc(Cl)cn2)c([N+](=O)[O-])c1 [Compound No. 10, N-(2-nitrobenzoyl)-N'-[4-(5-chloro-2-pyridyloxy)-3nitrophenyl]urea]
ILS at 100 mg/kg/day [1, 4]: 153% | LD50 [3]: ≥ 100 mg/kg

O=C(NC(=O)c1ccccc1[N+](=O)[O-])Nc1ccc(Oc2ncc(I)cn2)c(Cl)c1 [compound 7, N--(2nitrobenzoyl)-N'--[3chloro-4-(5-iodo-2-pyrimidinyloxy)phenyl]urea]
ILS (increase life span) ([2]; 1600 mg/kg/day): 41%

— US4677111A, “N-benzoyl-N'-(3-nitrophenyl) urea compounds, and antitumorous compositions containing them” (Ishihara Sangyo Kaisha Ltd., priority 1984, dated 1987)
